The values that follow are results of earlier work, collected in patent US20060194715A1, “Proteins encoded by ble genes and antibiotics from the bleomycin family” (priority 2002, published 2006).

The data set has as its target T1, Sh ble protein (Streptoalloteichus hindustanus, UniProt P17493).
T1 sequence (P17493 1-124): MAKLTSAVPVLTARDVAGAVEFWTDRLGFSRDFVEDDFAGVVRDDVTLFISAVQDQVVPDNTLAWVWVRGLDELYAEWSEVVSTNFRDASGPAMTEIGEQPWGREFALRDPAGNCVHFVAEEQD

Values joined by “and” are separate entries in the source; they are usually repeats but may differ in a detail not shown here. Equal entries are not always repeated. Where two headings read alike, the source gives them in different places.

Regarding bleomycin, the Kd (first bleomycin molecule bound, read-out: first affinity (single molecule of bleomycin bound to Sh ble dimer)) was approximately 600 nM; the Kd (second bleomycin molecule bound, read-out: second affinity (two molecules of bleomycin bound to Sh ble dimer)) is ~100 nM and ≤ 100 nM.
